From paper PMC9696794, “Synthesis and Antimicrobial Activity of Short Analogues of the Marine Antimicrobial Peptide Turgencin A: Effects of SAR Optimizations, Cys-Cys Cyclization and Lipopeptide Modifications” (International Journal of Molecular Sciences, 2022)
Values after ≈ are worked out from the molar mass of the structure shown. Like-named read-outs stand apart in the source and are kept apart here. Where a SMILES comes first, the peptide text is derived from it. Bridges are numbered along the chain shown (N, C = ends). The star is where a group is joined. Lauroyl = CCCCCCCCCCCC(=O)*; Octanoyl = CCCCCCCC(=O)*

Key:
[1] = tested on: E. coli (Ec, ATCC 25922); assay: microbe, parasite or virus in culture; assay type: cell-based, Escherichia coli; details: for MIC: Escherichia coli, ATCC25922
Outline: (§1)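 Cultures grown in Mueller–Hinton broth were adjusted by OD600 to 2.5–3 × 10^4 CFU/mL and mixed with two-fold peptide dilutions from 256 to 1 µg/mL. Plates were incubated at 35 °C with OD595 monitored every hour for 24 h.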

[2] = tested on: Gram-positive bacterial strains; details: Table S3; MIC >256 set to 256
Outline: as §1

[3] = tested on: B. subtilis 168; assay: Bacterial biosensor viability assay (lux operon luminescence); assay type: cell-based, Bacillus subtilis; details: B. subtilis 168, increasing concentrations, within 3 min
Excerpt: (§2) Changes in light emission of sensor bacteria constitutively expressing the bacterial lux operon or a eukaryotic luciferase can be used as a proxy for viability and membrane integrity, respectively. Light production of the viability biosensors represents metabolic activity of the bacteria. For the membrane integrity assay on the other hand, light production depends on the influx of the externally added D-luciferin, which at neural pH will not readily pass the intact plasma membrane. An initial increase in light production therefore corresponds with damage to the plasma membrane and a concomitant influx of D-luciferin, while a subsequent drop in light emission indicates diminishing ATP reserves of the dying sensor bacteria.
(§3) Bacterial viability, based on light production by constitutively expressed bacterial luciferase, was measured in real time according to the method described by Hansen et al.. The assay was performed using B. subtilis 168 with chromosomally integrated luxABCDE operon and E. coli K12 carrying the plasmid pCGLS-11 containing the luxCDABE operon. […] No D-luciferin was added to the cell suspension. Each assay was performed at least three times independently, and the figures show a representative dataset.

[4] = tested on: all bacterial strains; assay: Antibacterial MIC assay, all bacterial strains together (range or geometric mean); assay type: cell-based; details: for GM (geometric mean of the MIC values against all bacterial strains): Table 1, six bacterial strains; for GM of MIC Tot. bact.: Table S3, all bacterial test strains, MIC >256 set to 256
Outline: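 Broth microdilution in Mueller–Hinton broth against B. subtilis, C. glutamicum, S. aureus, S. epidermidis RP62A, E. coli and P. aeruginosa; inoculum 2.5–3 × 10^4 CFU/mL, 35 °C, OD595 read hourly for 24 h. MIC: lowest peptide concentration giving OD below 10% of growth control; geometric mean across strains, triplicate.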

[5] = tested on: B. subtilis 168; assay: Bacterial biosensor membrane integrity assay (luciferase, D-luciferin influx); assay type: cell-based, Bacillus subtilis; details: for time of membranolytic action (luminescence peak not detectable): B. subtilis 168, 25 µg/mL and 50 µg/mL
Excerpt: as §2
(§4) A membrane integrity assay was performed using two bacterial biosensors, B. subtilis 168 (ATCC 23857) and E. coli K12 (ATCC MC1061). Both strains carry the pCSS962 plasmid that contains a eukaryotic luciferase gene (lucGR), which originate from the click beetle Pyrophorus plagiophthalamus. The assay was performed as described previously. […] D-luciferin potassium salt (Synchem Inc., Elk Grove Village, IL, USA) was added to the cell suspension at a final concentration of 1 mM. Two-fold dilutions (final assay concentration of 50–1.56 µg/mL) of peptides dissolved in Milli-Q water were prepared and added (10 µL per well) to black round-bottom 96-well microtiter plates (Nunc). Milli-Q water served as a negative control used for the normalization purpose and CHX, having known membranolytic activity, was used as a positive control. The plates were loaded into a Synergy H1 Hybrid Reader and the background luminescence was monitored before aliquots (90 µL) of the cell suspension with D-luciferin were added, one well at the time, by an automatic injector. Light emission was recorded every second for 3 min. Each study was performed at least three times independently, and the figures show a representative dataset.

[6] = tested on: P. aeruginosa (Pa, ATCC 27853); assay: microbe, parasite or virus in culture; assay type: cell-based, Pseudomonas aeruginosa; details: for Antimicrobial Activity (MIC) Gram − Pa: ATCC 27853, 24 h
Outline: as §1

[7] = tested on: Gram-negative bacterial strains (E. coli and P. aeruginosa); assay: Antibacterial MIC assay, Gram-negative strains together (range or geometric mean); assay type: cell-based; details: Table S3; MIC >256 set to 256
Outline: as §1

[8] = tested on: C. glutamicum (Cg, ATCC 13032); assay: microbe, parasite or virus in culture; assay type: cell-based, Corynebacterium glutamicum; details: for Antimicrobial Activity (MIC) Gram + Cg: ATCC 13032, 24 h
Outline: as §1

[9] = tested on: E. coli K12; assay: Bacterial biosensor viability assay (lux operon luminescence); assay type: cell-based, Escherichia coli; details: E. coli K12, within 3 min
Excerpt: as §2, §3

[10] = tested on: E. coli K12; assay: Bacterial biosensor membrane integrity assay (luciferase, D-luciferin influx); assay type: cell-based, Escherichia coli
Excerpt: as §2, §4

Compound	GM of MIC G+ [2] [µg/mL]	effect on viability (light emission) [3]	GM (geometric mean of the MIC values against all bacterial strains) [4] [µg/mL]	GM of MIC Tot. bact. [4] [µg/mL]	time of membranolytic action (luminescence peak not detectable) [5] [s]	Antimicrobial Activity (MIC) Gram − Pa [6] [µg/mL]	GM of MIC G- [7] [µg/mL]	Antimicrobial Activity (MIC) Gram + Cg [8] [µg/mL]	effect on viability (light emission) [9]	other results
CCCCCCCCCCCC(=O)N[C@H]1CSSC[C@@H](C(=O)N[C@@H](CCCCN)C(=O)N[C@@H](CC(C)C)C(N)=O)NC(=O)[C@H](CCCCN)NC(=O)[C@H](Cc2c[nH]c3ccccc23)NC(=O)CNC(=O)CNC(=O)[C@@H]2CCCN2C(=O)[C@H](CCCCN)NC(=O)[C@H](CCCCN)NC(=O)CNC1=O [Peptide C12-cTurg-1, C12 -(CGKKPGGWKC)KL-NH2] (Lauroyl-CGKKPGGWKCKL-NH2; disulfide 1-10)	3	dose-dependent effect on viability	4	4	< 3	16	8	2	gradual, dose-dependent reduction in viability	MIC E. coli ATCC 25922 (from Table 1) ([1]; ATCC 25922, 2 h): 2 to 4 µg/mL; Antimicrobial Activity (MIC) Gram − Ec ([1]; ATCC 25922, 24 h): 4 µg/mL; effect on membrane integrity ([5]; B. subtilis 168, within 3 min): rapid and strong membrane disruptive effect; effect in membrane integrity assay ([10]; E. coli K12, 25 µg/mL): further delayed response; rise in luminescence in membrane integrity assay ([10]; E. coli K12, 50 µg/mL, delayed compared to chlorhexidine): 3.5 fold; effect in membrane integrity assay ([10]; E. coli K12, concentrations lower than 25 µg/mL): no effect
[H]/N=C(\N/C(=N/[H])NCCCCCCNC(=N)NC(=N)Nc1ccc(Cl)cc1)Nc1ccc(Cl)cc1 [Chlorhexidine, reference compound]										MIC ([1]; E. coli ATCC 25922, 24 h, read-out: Antimicrobial Activity (MIC) Gram − Ec): 1.6 µg/mL (≈ 3.17 µM); MIC ([1]; Table 2, laboratory strain, read-out: MIC E. coli ATCC 25922 (from Table 1)): 1.6 µg/mL (≈ 3.17 µM); MIC ([4]; read-out: GM (geometric mean of the MIC values against all bacterial strains)): 20 µg/mL (≈ 39.6 µM); MIC ([6]; Pseudomonas aeruginosa, ATCC27853, P. aeruginosa ATCC 27853, 24 h, read-out: Antimicrobial Activity (MIC) Gram − Pa): 6.3 µg/mL (≈ 12.5 µM); MIC ([8]; Corynebacterium glutamicum, ATCC13032, C. glutamicum ATCC 13032, 24 h, read-out: Antimicrobial Activity (MIC) Gram + Cg): 0.8 µg/mL
CCCCCCCC(=O)N[C@H]1CSSC[C@@H](C(=O)N[C@@H](CCCCN)C(=O)N[C@@H](CC(C)C)C(N)=O)NC(=O)[C@H](CCCCN)NC(=O)[C@H](Cc2c[nH]c3ccccc23)NC(=O)CNC(=O)[C@H](Cc2c[nH]c3ccccc23)NC(=O)[C@H](Cc2c[nH]c3ccccc23)NC(=O)[C@H](CCCCN)NC(=O)[C@H](CCCCN)NC(=O)CNC1=O [Peptide C8-cTurg-2, C8- (CGKKWWGWKC)KL-NH2] (Octanoyl-CGKKWWGWKCKL-NH2; disulfide 1-10)	3	dose-dependent effect on viability	4	4	< 3	8	6	2	gradual, dose-dependent reduction in viability	effect in membrane integrity assay ([10]; E. coli K12, 50 µg/mL): even further delayed rise in peak luminescence
